In patent US20260070903A1, “NOVEL PYRIDO[3,4-D]PYRIMIDIN-8-ONE DERIVATIVE HAVING PROTEIN KINASE INHIBITORY ACTIVITY, AND PHARMACEUTICAL COMPOSITION FOR PREVENTING, ALLEVIATING, OR TREATING CANCER, COMPRISING SAME” (KOREA INSTITUTE OF SCIENCE AND TECHNOLOGY, priority 2019, published 2026):

Assays:
ACK1 [1] = target: T1, ACK1 (Homo sapiens, UniProt Q07912); assay: Inhibitory activity against ACK1 kinase (IC50); format: biochemical
Description: The inhibitory activities of the compounds of the present disclosure against two kinases, GCK and ACK1, were measured, and the IC50 values thereof were calculated.

EPHA6 = EPHA6 (Homo sapiens, UniProt Q9UF33); assay: Kinase panel biochemical assay, EPHA6; conditions: single concentration of 1 μM, read-out: percent inhibition of kinase
Description: (§1) As a test compound, Compound No. 55 was used. The percent inhibition of each kinase when treated with the test compound at a single concentration of 1 μM was measured, and the residual enzyme activity values (%) of the kinases were calculated. Kinases whose calculated residual enzyme activity values (%) was 30% or less (i.e., kinases inhibited by 70% or more) are as follows: […]

EPHA1 = EPHA1 (Homo sapiens, UniProt P21709); assay: Kinase panel biochemical assay, EPHA1; conditions: single concentration of 1 μM, read-out: percent inhibition of kinase
Description: as §1

DDR2 = DDR2 (Homo sapiens, UniProt Q16832); assay: Kinase panel biochemical assay, DDR2; conditions: single concentration of 1 μM, read-out: percent inhibition of kinase
Description: as §1

LYN = LYN (Homo sapiens, UniProt P07948); assay: Kinase panel biochemical assay, LYN; conditions: single concentration of 1 μM, read-out: percent inhibition of kinase
Description: as §1

DDR1 = DDR1 (Homo sapiens, UniProt Q08345); assay: Kinase panel biochemical assay, DDR1; conditions: single concentration of 1 μM, read-out: percent inhibition of kinase
Description: as §1

YES = YES (Homo sapiens, UniProt P07947); assay: Kinase panel biochemical assay, YES; conditions: single concentration of 1 μM, read-out: percent inhibition of kinase
Description: as §1

BLK = BLK (Homo sapiens, UniProt P51451); assay: Kinase panel biochemical assay, BLK; conditions: single concentration of 1 μM, read-out: percent inhibition of kinase
Description: as §1

RAF1 = RAF1 (Homo sapiens, UniProt P04049); assay: Kinase panel biochemical assay, RAF1; conditions: single concentration of 1 μM, read-out: percent inhibition of kinase
Description: as §1

PDGFRb = PDGFRb (Homo sapiens, UniProt P09619); assay: Kinase panel biochemical assay, PDGFRb; conditions: single concentration of 1 μM, read-out: percent inhibition of kinase
Description: as §1

EPHB3 = EPHB3 (Homo sapiens, UniProt P54753); assay: Kinase panel biochemical assay, EPHB3; conditions: single concentration of 1 μM, read-out: percent inhibition of kinase
Chain of EPHB3 (P54753 34-998): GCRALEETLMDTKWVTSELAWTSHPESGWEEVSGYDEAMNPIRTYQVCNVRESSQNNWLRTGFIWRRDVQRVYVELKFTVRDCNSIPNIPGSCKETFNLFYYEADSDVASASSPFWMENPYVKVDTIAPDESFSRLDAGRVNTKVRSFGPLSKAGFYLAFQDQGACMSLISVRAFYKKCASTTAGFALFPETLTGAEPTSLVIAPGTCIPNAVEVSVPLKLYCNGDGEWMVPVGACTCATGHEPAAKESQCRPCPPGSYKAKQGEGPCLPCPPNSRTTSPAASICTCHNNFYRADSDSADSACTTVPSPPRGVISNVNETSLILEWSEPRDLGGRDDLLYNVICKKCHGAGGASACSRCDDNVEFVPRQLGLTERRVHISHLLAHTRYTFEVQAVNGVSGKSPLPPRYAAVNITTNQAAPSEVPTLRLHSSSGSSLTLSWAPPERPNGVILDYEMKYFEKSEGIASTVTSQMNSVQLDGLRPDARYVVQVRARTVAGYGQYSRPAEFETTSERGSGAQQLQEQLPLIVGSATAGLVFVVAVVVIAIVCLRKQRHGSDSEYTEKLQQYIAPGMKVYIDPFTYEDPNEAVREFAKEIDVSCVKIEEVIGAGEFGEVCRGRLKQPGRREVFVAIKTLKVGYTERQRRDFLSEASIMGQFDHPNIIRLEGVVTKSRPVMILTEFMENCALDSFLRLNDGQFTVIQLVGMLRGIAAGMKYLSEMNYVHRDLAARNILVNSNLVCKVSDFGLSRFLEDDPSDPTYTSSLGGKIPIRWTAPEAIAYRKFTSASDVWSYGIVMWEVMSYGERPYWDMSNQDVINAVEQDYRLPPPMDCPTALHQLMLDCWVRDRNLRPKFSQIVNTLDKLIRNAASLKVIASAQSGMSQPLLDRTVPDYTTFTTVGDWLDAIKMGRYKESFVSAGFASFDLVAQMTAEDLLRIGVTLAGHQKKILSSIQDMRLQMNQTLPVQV
Description: as §1

c-Src = c-Src (Homo sapiens, UniProt P12931); assay: Kinase panel biochemical assay, c-Src; conditions: single concentration of 1 μM, read-out: percent inhibition of kinase
Description: as §1

JAK1 = JAK1 (Homo sapiens, UniProt P23458); assay: Kinase panel biochemical assay, JAK1; conditions: single concentration of 1 μM, read-out: percent inhibition of kinase
Description: as §1

FMS = FMS (Homo sapiens, UniProt P07333); assay: Kinase panel biochemical assay, FMS; conditions: single concentration of 1 μM, read-out: percent inhibition of kinase
Chain of FMS (P07333 20-972): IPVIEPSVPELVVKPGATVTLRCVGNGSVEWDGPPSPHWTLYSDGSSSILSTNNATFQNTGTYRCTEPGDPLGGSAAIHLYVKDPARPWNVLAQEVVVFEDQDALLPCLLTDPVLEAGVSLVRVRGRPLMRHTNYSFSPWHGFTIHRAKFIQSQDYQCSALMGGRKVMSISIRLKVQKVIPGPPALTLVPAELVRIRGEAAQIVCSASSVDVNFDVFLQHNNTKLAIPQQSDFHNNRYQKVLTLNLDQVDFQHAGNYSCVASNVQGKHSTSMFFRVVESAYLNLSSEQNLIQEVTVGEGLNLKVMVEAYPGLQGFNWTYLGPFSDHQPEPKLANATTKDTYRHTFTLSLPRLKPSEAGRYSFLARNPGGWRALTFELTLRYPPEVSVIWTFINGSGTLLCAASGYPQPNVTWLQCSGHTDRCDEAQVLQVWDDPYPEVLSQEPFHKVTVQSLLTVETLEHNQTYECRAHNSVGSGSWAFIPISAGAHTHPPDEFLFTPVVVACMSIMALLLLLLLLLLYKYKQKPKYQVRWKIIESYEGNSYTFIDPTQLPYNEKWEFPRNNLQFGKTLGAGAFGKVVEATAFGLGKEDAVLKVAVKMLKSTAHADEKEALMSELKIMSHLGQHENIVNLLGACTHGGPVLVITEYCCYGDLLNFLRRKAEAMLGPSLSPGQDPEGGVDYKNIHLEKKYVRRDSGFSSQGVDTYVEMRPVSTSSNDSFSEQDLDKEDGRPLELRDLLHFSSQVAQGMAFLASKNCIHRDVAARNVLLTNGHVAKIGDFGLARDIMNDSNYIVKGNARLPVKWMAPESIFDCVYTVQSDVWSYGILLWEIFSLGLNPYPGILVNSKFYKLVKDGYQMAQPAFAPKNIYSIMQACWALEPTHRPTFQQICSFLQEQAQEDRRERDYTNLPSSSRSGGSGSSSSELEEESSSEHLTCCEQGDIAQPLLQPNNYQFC
Description: as §1

TIE2 = TIE2 (Homo sapiens, UniProt Q02763); assay: Kinase panel biochemical assay, TIE2; conditions: single concentration of 1 μM, read-out: percent inhibition of kinase
Description: as §1

FGFR4 = FGFR4 (Homo sapiens, UniProt P22455); assay: Kinase panel biochemical assay, FGFR4; conditions: single concentration of 1 μM, read-out: percent inhibition of kinase
Description: as §1

Ba/F3 (N-Ras G12D) = assay: Proliferation inhibitory activity, Ba/F3 N-Ras G12D; format: cell-based; conditions: Mus musculus, BaF3
Description: The inhibitory activities of the compounds of the present disclosure against the proliferation of the mt-NRAS (G12D) Ba/F3 and OCI-AML3 (mt-NRAS) cell lines were measured and the GI50 values thereof were calculated.

KHS = KHS (Homo sapiens, UniProt Q9Y4K4); assay: Kinase panel biochemical assay, KHS; conditions: single concentration of 1 μM, read-out: percent inhibition of kinase
Description: as §1

ABL2 = ABL2 (Homo sapiens, UniProt P42684); assay: Kinase panel biochemical assay, ABL2; conditions: single concentration of 1 μM, read-out: percent inhibition of kinase
Description: as §1

FYN = FYN (Homo sapiens, UniProt P06241); assay: Kinase panel biochemical assay, FYN; conditions: single concentration of 1 μM, read-out: percent inhibition of kinase
Description: as §1

SRMS = SRMS (Homo sapiens, UniProt Q9H3Y6); assay: Kinase panel biochemical assay, SRMS; conditions: single concentration of 1 μM, read-out: percent inhibition of kinase
Description: as §1

ARAF = ARAF (Homo sapiens, UniProt P10398); assay: Kinase panel biochemical assay, ARAF; conditions: single concentration of 1 μM, read-out: percent inhibition of kinase
Description: as §1

ACK1 [2] = target: T1, ACK1; assay: Kinase panel biochemical assay, ACK1; conditions: single concentration of 1 μM, read-out: percent inhibition of kinase
Description: as §1

RET = RET (Homo sapiens, UniProt P07949); assay: Kinase panel biochemical assay, RET; conditions: single concentration of 1 μM, read-out: percent inhibition of kinase
Description: as §1

BMX = BMX (Homo sapiens, UniProt P51813); assay: Kinase panel biochemical assay, BMX; conditions: single concentration of 1 μM, read-out: percent inhibition of kinase
Chain of BMX (P51813 whole entry): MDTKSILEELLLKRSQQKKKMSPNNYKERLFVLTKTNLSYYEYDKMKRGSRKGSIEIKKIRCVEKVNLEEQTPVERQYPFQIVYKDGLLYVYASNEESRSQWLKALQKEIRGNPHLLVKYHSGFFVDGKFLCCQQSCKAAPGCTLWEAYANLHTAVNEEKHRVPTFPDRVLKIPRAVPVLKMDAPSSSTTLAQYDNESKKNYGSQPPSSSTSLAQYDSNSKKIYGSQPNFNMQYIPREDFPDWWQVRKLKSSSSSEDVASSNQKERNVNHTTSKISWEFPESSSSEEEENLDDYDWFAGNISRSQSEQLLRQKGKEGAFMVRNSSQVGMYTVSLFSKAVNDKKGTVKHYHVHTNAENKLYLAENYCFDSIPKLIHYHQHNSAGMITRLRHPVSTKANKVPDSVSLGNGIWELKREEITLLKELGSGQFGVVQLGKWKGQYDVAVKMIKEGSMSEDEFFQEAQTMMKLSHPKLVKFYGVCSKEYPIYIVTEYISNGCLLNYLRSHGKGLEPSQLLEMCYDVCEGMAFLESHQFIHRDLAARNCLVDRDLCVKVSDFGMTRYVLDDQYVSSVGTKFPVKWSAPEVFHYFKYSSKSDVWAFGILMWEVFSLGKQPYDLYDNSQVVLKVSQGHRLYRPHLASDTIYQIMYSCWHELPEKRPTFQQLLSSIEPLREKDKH
Description: as §1

FGFR1 = FGFR1 (Homo sapiens, UniProt P11362); assay: Kinase panel biochemical assay, FGFR1; conditions: single concentration of 1 μM, read-out: percent inhibition of kinase
Description: as §1

KDR = KDR (Homo sapiens, UniProt P35968); assay: Kinase panel biochemical assay, KDR; conditions: single concentration of 1 μM, read-out: percent inhibition of kinase
Chain of KDR (P35968 20-1356): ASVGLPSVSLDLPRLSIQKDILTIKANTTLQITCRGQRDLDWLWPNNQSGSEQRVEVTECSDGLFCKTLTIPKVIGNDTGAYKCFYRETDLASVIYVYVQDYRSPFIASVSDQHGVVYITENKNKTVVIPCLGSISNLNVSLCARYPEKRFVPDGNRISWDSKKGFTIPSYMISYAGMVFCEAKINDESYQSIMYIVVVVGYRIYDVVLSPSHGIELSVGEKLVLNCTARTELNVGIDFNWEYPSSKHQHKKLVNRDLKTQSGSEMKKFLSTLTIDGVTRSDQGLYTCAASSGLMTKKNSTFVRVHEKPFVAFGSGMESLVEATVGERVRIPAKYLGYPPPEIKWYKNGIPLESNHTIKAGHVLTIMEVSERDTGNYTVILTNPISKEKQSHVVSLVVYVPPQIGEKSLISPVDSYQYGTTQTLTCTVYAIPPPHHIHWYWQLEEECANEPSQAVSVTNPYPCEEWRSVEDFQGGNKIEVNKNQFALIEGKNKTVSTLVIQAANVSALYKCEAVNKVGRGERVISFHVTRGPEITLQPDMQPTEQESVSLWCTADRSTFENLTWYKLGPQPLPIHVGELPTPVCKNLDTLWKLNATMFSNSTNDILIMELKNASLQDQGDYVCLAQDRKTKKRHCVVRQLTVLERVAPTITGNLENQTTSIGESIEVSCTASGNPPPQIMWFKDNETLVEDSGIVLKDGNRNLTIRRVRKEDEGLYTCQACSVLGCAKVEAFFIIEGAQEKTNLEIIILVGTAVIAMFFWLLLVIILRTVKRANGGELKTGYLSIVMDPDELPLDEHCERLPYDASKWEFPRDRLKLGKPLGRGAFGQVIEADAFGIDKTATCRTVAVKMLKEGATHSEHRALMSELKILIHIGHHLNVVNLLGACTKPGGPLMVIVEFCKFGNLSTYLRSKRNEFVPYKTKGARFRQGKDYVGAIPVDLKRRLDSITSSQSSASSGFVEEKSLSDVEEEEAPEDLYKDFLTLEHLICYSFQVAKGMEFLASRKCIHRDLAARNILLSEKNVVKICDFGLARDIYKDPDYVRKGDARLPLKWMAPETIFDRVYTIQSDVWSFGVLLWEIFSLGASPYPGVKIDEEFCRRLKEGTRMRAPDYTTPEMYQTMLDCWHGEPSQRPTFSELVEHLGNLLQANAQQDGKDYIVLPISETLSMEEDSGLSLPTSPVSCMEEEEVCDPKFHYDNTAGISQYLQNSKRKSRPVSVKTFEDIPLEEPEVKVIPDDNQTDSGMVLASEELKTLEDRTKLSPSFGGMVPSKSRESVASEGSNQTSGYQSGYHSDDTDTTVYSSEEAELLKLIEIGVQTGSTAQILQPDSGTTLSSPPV
Description: as §1

EPHB2 = EPHB2 (Homo sapiens, UniProt P29323); assay: Kinase panel biochemical assay, EPHB2; conditions: single concentration of 1 μM, read-out: percent inhibition of kinase
Description: as §1

PDGFRa = PDGFRa (Homo sapiens, UniProt P16234); assay: Kinase panel biochemical assay, PDGFRa; conditions: single concentration of 1 μM, read-out: percent inhibition of kinase
Description: as §1

JAK2 = JAK2 (Homo sapiens, UniProt O60674); assay: Kinase panel biochemical assay, JAK2; conditions: single concentration of 1 μM, read-out: percent inhibition of kinase
Description: as §1

p38b = p38b (Homo sapiens, UniProt Q15759); assay: Kinase panel biochemical assay, p38b; conditions: single concentration of 1 μM, read-out: percent inhibition of kinase
Description: as §1

HCK = HCK (Homo sapiens, UniProt P08631); assay: Kinase panel biochemical assay, HCK; conditions: single concentration of 1 μM, read-out: percent inhibition of kinase
Description: as §1

T1 sequence (Q07912 whole entry): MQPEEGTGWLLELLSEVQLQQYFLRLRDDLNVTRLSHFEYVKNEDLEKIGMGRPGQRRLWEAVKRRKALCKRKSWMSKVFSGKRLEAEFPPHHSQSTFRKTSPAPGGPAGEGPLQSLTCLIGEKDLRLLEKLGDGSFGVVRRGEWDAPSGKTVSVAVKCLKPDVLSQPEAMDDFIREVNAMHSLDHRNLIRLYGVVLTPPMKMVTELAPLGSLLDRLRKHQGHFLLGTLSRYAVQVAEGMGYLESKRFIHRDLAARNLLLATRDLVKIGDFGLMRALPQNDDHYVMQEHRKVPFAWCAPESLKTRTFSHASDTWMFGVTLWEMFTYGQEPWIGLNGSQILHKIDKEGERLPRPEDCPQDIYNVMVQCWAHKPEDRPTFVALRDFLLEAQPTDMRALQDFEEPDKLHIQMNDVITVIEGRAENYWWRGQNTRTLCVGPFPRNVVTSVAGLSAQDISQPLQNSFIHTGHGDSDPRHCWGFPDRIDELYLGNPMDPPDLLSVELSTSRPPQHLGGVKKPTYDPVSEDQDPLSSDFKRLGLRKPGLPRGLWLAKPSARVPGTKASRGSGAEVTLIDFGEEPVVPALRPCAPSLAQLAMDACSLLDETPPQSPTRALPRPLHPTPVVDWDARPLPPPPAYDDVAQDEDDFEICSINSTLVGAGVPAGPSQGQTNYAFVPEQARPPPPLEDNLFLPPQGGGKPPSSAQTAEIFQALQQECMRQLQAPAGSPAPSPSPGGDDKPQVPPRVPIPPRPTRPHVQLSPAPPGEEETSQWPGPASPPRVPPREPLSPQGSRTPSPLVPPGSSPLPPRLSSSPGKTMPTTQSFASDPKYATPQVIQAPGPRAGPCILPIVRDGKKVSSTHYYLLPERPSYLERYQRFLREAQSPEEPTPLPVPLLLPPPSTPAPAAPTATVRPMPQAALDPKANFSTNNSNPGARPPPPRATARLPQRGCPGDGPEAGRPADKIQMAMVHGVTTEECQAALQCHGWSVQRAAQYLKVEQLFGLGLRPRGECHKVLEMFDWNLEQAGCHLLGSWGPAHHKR

Cc1ccc(NC(=O)c2cccc(C(F)(F)F)c2)cc1-c1cc2cnc(N)nc2c(=O)[nH]1 [Compound No. 55, N-(3-(2-amino-8-oxo-7,8-dihydropyrido[3,4-d]pyrimidin-6-yl)-4-methylphenyl)-3-(trifluoromethyl)benzamide]
100 to 1000 nM: IC50 (ACK1 [1])
≥ 70%: inhibition at 1 µM (EPHA6) | inhibition at 1 µM (EPHA1) | inhibition at 1 µM (DDR2) | inhibition at 1 µM (LYN) | inhibition at 1 µM (DDR1) | inhibition at 1 µM (YES) | inhibition at 1 µM (BLK) | inhibition at 1 µM (RAF1) | inhibition at 1 µM (PDGFRb) | inhibition at 1 µM (EPHB3) | inhibition at 1 µM (c-Src) | inhibition at 1 µM (JAK1) | inhibition at 1 µM (FMS) | inhibition at 1 µM (TIE2) | inhibition at 1 µM (FGFR4) | inhibition at 1 µM (KHS) | inhibition at 1 µM (ABL2) | inhibition at 1 µM (FYN) | inhibition at 1 µM (SRMS) | inhibition at 1 µM (ARAF) | inhibition at 1 µM (ACK1 [2]) | inhibition at 1 µM (RET) | inhibition at 1 µM (BMX) | inhibition at 1 µM (FGFR1) | inhibition at 1 µM (KDR) | inhibition at 1 µM (EPHB2) | inhibition at 1 µM (PDGFRa) | inhibition at 1 µM (JAK2) | inhibition at 1 µM (p38b) | inhibition at 1 µM (HCK)
< 0.5 µM: GI50 (Ba/F3 (N-Ras G12D))
